In BindingDB's records for doi:10.1021/acs.jmedchem.7b00882 (The University of Queensland, 2018):
Each block holds one compound with its values, some of them ahead of it. Peptide text beside a SMILES is read from it.

Assays:
[1] = Inhibition of factor D in […]-activated rat serum assessed as decrease in human erythrocyte lysis
[2] = Inhibition of factor D in […]-activated human serum assessed as decrease in human erythrocyte lysis
[3] = Inhibition of C9 binding to C5b678 in […] activated human serum assessed as suppression of human erythrocyte lysis after 1 hr by ELISA
[4] = Inhibition of human serum C1s-mediated lysis of rabbit Ab-sensitized sheep erythrocytes after 60 mins
[5] = Inhibition of human serum C2-mediated lysis of antibody-sensitized sheep red blood cells after 30 mins by UV-Vis spectrophotometric method

IC50 [1]: 0.1 µM
IC50 [2]: 0.1 µM
Structure (SMILES): CC(=O)Oc1ccc(-c2ccc(OC(C)=O)c(C(=O)O)c2)cc1C(=O)O

IC50 [3]: 0.5 µM
Structure (SMILES): O=C(O)C1=CC(=C(c2ccc(O)c(C(=O)O)c2)c2ccc(O)c(C(=O)O)c2)C=CC1=O [MLS002153482]

Structure (SMILES): N=C(N)c1cc2ccc(OC(=O)c3cccs3)cc2s1
IC50 [4]: 0.046 µM

IC50 [3]: 0.5 µM
Structure (SMILES): O=C(O)C1=C/C(=C(/c2ccc(O)c(C(=O)O)c2)c2cc(Cc3cc(C(c4ccc(O)c(C(=O)O)c4)c4ccc(O)c(C(=O)O)c4)cc(C(=O)O)c3O)cc(C(=O)O)c2O)C=CC1=O

Structure (SMILES): CC(=O)N[C@@H](CCCNC(=N)N)C(=O)N[C@@H](CC(C)C)C(=O)N[C@@H](CC(C)C)C(=O)N[C@@H](CC(C)C)C(=O)N[C@@H](C)C(=O)N[C@H](C=O)CCCNC(=N)N (Ac-RLLLAR-aldehyde)
IC50 [5]: 28 µM

IC50 [3]: 0.5 µM
Structure (SMILES): O=C(O)C1=C/C(=C\c2cc(C(c3ccc(O)c(C(=O)O)c3)c3ccc(O)c(C(=O)O)c3)cc(C(=O)O)c2O)C=CC1=O

IC50 [1]: 0.1 µM
IC50 [2]: 0.1 µM
Structure (SMILES): CC(=O)Oc1ccc(Cc2ccc(OC(C)=O)c(C(=O)O)c2)cc1C(=O)O
